Measured values as given in patent US9513294B2, “Megastokes amino-triazolyl-BODIPY compounds and applications to live neuron staining and human serum albumin FA1 drug site probing” (National University of Singapore, priority 2012, dated 2016).
Each block holds one compound with its values, some of them ahead of it.

Experiments:
[1] = Quantum yield measurements versus Acridine Yellow in EtOH; type: physicochemical; details: for φ (quantum yield): excitation 460 nm; for φ (%): quantum yield
In short: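 Emission areas integrated over 510–700 nm were compared with Acridine Yellow in ethanol (Φ=0.47), all excited at 460 nm. The comparative equation was normalized to excitation-wavelength absorbance and solvent refractive index.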

[2] = Absorbance and fluorescence emission spectra (SpectraMax M2); type: physicochemical; details: for λmax Absorp. (nm) / λmax Emission (nm): MKCA compound library; for λmax Absorp. (nm) / λmax Abs. (nm): absorbance maximum; for λmax Emission (nm) / λmax Em. (nm): fluorescence emission maximum; for λmax Abs. (nm) / λmax Em. (nm): MKAC compound library
In short: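 Spectroscopic data, including quantum yields, were recorded with a SpectraMax M2 instrument and analysed in GraphPrism.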

φ (quantum yield) ([1]; MK library, Table 5): 0.46% | λmax Absorp. ([2]; MK library, Table 5): 476 nm | λmax Emission ([2]; MK library, Table 5): 564 nm
Structure (SMILES): CCCC(C)c1cn(-c2ccc3n2[B-](F)(F)[N+]2=C(N(C)Cc4ccccc4)C=CC2=C3c2ccc(N)cc2)nn1 (centres unmarked) [MK195-3]

φ (%) ([1]; MKCA compound library): 38.23% | λmax Absorp. (nm) [2]: 465 nm | λmax Emission (nm) [2]: 562 nm
Structure (SMILES): CCCc1cn(-c2ccc3n2[B-](F)(F)[N+]2=C(NCc4ccccc4OCC)C=CC2=C3c2ccc(NC(=O)CCl)cc2)nn1 [MKCA103-48]

φ (quantum yield) ([1]; MK library, Table 5): 0.64% | absorbance λmax ([2]; FIG. 2 normalized spectra): 474 nm | emission λmax ([2]; FIG. 2 normalized spectra): 563 nm | λmax Absorp. ([2]; MK library, Table 5): 475 nm | λmax Emission ([2]; MK library, Table 5): 564 nm
Structure (SMILES): Cc1ccccc1CNC1=[N+]2C(=C(c3ccc(N)cc3)c3ccc(-n4cc(CC5CCCCC5)nn4)n3[B-]2(F)F)C=C1 [MK101-8]

φ (quantum yield) ([1]; MK library, Table 5): 0.25% | λmax Absorp. ([2]; MK library, Table 5): 476 nm | λmax Emission ([2]; MK library, Table 5): 580 nm
Structure (SMILES): CCCc1cn(-c2ccc3n2[B-](F)(F)[N+]2=C(N4CC(C)OC(C)C4)C=CC2=C3c2ccc(N)cc2)nn1 (centres unmarked) [MK20-48]

φ (quantum yield) ([1]; MK library, Table 5): 1.89% | λmax Absorp. ([2]; MK library, Table 5): 470 nm | λmax Emission ([2]; MK library, Table 5): 562 nm
Structure (SMILES): Nc1ccc(C2=C3C=CC(NCc4cc(F)cc(F)c4)=[N+]3[B-](F)(F)n3c2ccc3-n2cc(CO)nn2)cc1 [MK412-70]

φ (quantum yield) ([1]; MK library, Table 5): 0.29% | λmax Absorp. ([2]; MK library, Table 5): 470 nm | λmax Emission ([2]; MK library, Table 5): 576 nm
Structure (SMILES): Nc1ccc(C2=C3C=CC(N4CCCC4)=[N+]3[B-](F)(F)n3c2ccc3-n2cc(C3CC3)nn2)cc1 [MK215-4]

φ (%) ([1]; MKAC compound library): 29.05% | λmax Abs. (nm) [2]: 464 nm | λmax Em. (nm) [2]: 562 nm
Structure (SMILES): CCOc1ccccc1CNC1=[N+]2C(=C(c3ccc(NC(C)=O)cc3)c3ccc(-n4cc(CCc5ccccc5)nn4)n3[B-]2(F)F)C=C1 [MKAC103-19]

φ (%) ([1]; MKAC compound library): 18.11% | λmax Abs. (nm) [2]: 465 nm | λmax Em. (nm) [2]: 562 nm
Structure (SMILES): CCOc1ccccc1CNC1=[N+]2C(=C(c3ccc(NC(C)=O)cc3)c3ccc(-n4cc(C5CCCC5)nn4)n3[B-]2(F)F)C=C1 [MKAC103-5]

φ (%) ([1]; MKCA compound library): 21.21% | λmax Absorp. (nm) [2]: 465 nm | λmax Emission (nm) [2]: 564 nm
Structure (SMILES): COc1ccc(OC)c(CNC2=[N+]3C(=C(c4ccc(NC(=O)CCl)cc4)c4ccc(-n5cc(CC(C)C)nn5)n4[B-]3(F)F)C=C2)c1 [MKCA181-43]

φ (%) ([1]; MKAC compound library): 22.79% | λmax Abs. (nm) [2]: 465 nm | λmax Em. (nm) [2]: 560 nm
Structure (SMILES): CCOc1ccccc1CNC1=[N+]2C(=C(c3ccc(NC(C)=O)cc3)c3ccc(-n4cc(CC(C)C)nn4)n3[B-]2(F)F)C=C1 [MKAC103-43]

φ (%) ([1]; MKAC compound library): 2.70% | λmax Abs. (nm) [2]: 461 nm | λmax Em. (nm) [2]: 566 nm
Structure (SMILES): CCCc1cn(-c2ccc3n2[B-](F)(F)[N+]2=C(N4CCCC4)C=CC2=C3c2ccc(NC(C)=O)cc2)nn1 [MKAC215-48]

φ (%) ([1]; MKCA compound library): 1.97% | λmax Absorp. (nm) [2]: 459 nm | λmax Emission (nm) [2]: 568 nm
Structure (SMILES): O=C(CCl)Nc1ccc(C2=C3C=CC(N4CCCC4)=[N+]3[B-](F)(F)n3c2ccc3-n2cc(CO)nn2)cc1 [MKCA215-70]

φ (%) ([1]; MKCA compound library): 21.93% | λmax Absorp. (nm) [2]: 466 nm | λmax Emission (nm) [2]: 562 nm
Structure (SMILES): CCCCCC(O)c1cn(-c2ccc3n2[B-](F)(F)[N+]2=C(NCc4ccccc4C)C=CC2=C3c2ccc(NC(=O)CCl)cc2)nn1 (centres unmarked) [MKCA101-69]

φ (quantum yield) ([1]; MK library, Table 5): 0.88% | λmax Absorp. ([2]; MK library, Table 5): 472 nm | λmax Emission ([2]; MK library, Table 5): 568 nm
Structure (SMILES): COc1ccc(OC)c(CNC2=[N+]3C(=C(c4ccc(N)cc4)c4ccc(-n5cc(CO)nn5)n4[B-]3(F)F)C=C2)c1 [MK181-70]

φ (quantum yield) ([1]; BDCCA library, Table 4): 1.0% | λmax Absorp. ([2]; BDCCA library, Table 4): 466 nm | λmax Emission ([2]; BDCCA library, Table 4): 578 nm
Structure (SMILES): O=C(CCl)Nc1ccc(C2=C3C=CC(N4CCCCC4)=[N+]3[B-](F)(F)n3c2ccc3-n2cc(CCc3ccccc3)nn2)cc1 [BDCCA-19]

φ (quantum yield) ([1]; MK library, Table 5): 1.08% | λmax Absorp. ([2]; MK library, Table 5): 475 nm | λmax Emission ([2]; MK library, Table 5): 562 nm
Structure (SMILES): CCCC(C)c1cn(-c2ccc3n2[B-](F)(F)[N+]2=C(NCc4ccccc4C)C=CC2=C3c2ccc(N)cc2)nn1 (centres unmarked) [MK101-3]

φ (quantum yield) ([1]; BDC library, Table 2): 0.13% | λmax Absorp. ([2]; BDC library, Table 2): 475 nm | λmax Emission ([2]; BDC library, Table 2): 577 nm
Structure (SMILES): CCCCCCCc1cn(-c2ccc3n2[B-](F)(F)[N+]2=C(N4CCCCC4)C=CC2=C3c2ccc(N)cc2)nn1 [BDC-50]

φ (%) ([1]; MKAC compound library): 17.68% | λmax Abs. (nm) [2]: 468 nm | λmax Em. (nm) [2]: 563 nm
Structure (SMILES): CCCCCC(O)c1cn(-c2ccc3n2[B-](F)(F)[N+]2=C(NCc4cc(F)cc(F)c4)C=CC2=C3c2ccc(NC(C)=O)cc2)nn1 (centres unmarked) [MKAC412-69]

φ (quantum yield) ([1]; MK library, Table 5): 0.86% | λmax Absorp. ([2]; MK library, Table 5): 473 nm | λmax Emission ([2]; MK library, Table 5): 563 nm
Structure (SMILES): CCCCCC(O)c1cn(-c2ccc3n2[B-](F)(F)[N+]2=C(NCc4cc(OC)ccc4OC)C=CC2=C3c2ccc(N)cc2)nn1 (centres unmarked) [MK181-69]

φ (quantum yield) ([1]; BDCAC library, Table 3): 0.8% | λmax Absorp. ([2]; BDCAC library, Table 3): 467 nm | λmax Emission ([2]; BDCAC library, Table 3): 581 nm
Structure (SMILES): CC(=O)Nc1ccc(C2=C3C=CC(N4CCCCC4)=[N+]3[B-](F)(F)n3c2ccc3-n2cc(CC(C)C)nn2)cc1 [BDCAC-43]
